In patent publication US5814634A, “Alkylenediamine derivative anti-ulcer drug and antibacterial drug” (Shiseido Co. Ltd., priority 1996, dated 1998):

What was measured:
stress ulcer = experiment: WIS: Restraint and Water Immersion Stress-Induced Ulcer Inhibition Test; assay type: in vivo, rat (male Crj:SD or Slc:SD); conditions: 100 mg/kg oral, rats, water immersion stress 7 hours
Description: WIS: Restraint and Water Immersion Stress-Induced Ulcer Inhibition Test
The degree of inhibition of the stress ulcer formation is tested.
Male Crj:SD or Slc:SD rats (6 to 7-week-old) were fasted overnight, but allowed free access to water. Each group has 5 to 8 of these rats. The sample compound was dissolved or suspended in an aqueous solution of 0.3% sodium carboxymethylcellulose or 0.05% Tween 80 and then was orally administered (100 mg/10 ml/kg). To a control group, the vehicle was administered. 10 minutes later, the rats were placed in a stress cage and immersed to the level of xipfoid process in a water bath (21° C.) for 7 hours. At the end of the stress, the rats were sacrificed by inhalation of ether or carbon dioxide. Then, the stomach of each was removed, inflated by injecting 10 ml of 5% formalin neutral buffer solution, and immersed in 1% formalin neutral buffer solution for 30 minutes or more to be fixed. The stomach was incised along the greater curvature and then the length of each erosion in the glandular portion was determined under dissecting microscope. The sum of the length of erosions per stomach was defined as ulcer index (UI).
(§1) The effect obtained when 100 mg/kg of the sample compound had been administered was expressed as ulcer formation inhibitory rate (%) as follows: [formula] VOL, TAO: Acid Secretion Inhibition Test In Vivo i) Meaning

[1] = tested on: isolated gastric fundic gland; experiment: CAP: Acid Secretion Inhibition Test In Vitro ([14C]-aminopyrine uptake); assay type: cell-based, rabbit (male Japanese White); conditions: Oryctolagus cuniculus, 40 min; 10^-5 M compound, 10^-5 M histamine, rabbit isolated gastric fundic gland, 37° C., 40 minutes; read-out: CAP: acid secretion inhibitory rate
Description: (§2) With respect to the gastric juice volume (VOL) and the total acid output (TAO), the effects obtained when 100 mg/kg of the sample compound had been administered were expressed as their respective inhibitory rates (%) as follows: [formula] CAP: Acid Secretion Inhibition Test In Vitro i) Meaning
The acid secretion inhibitory activity in a cell level is studied. It can also be used for studying the mechanism of the effect.
ii-a) Preparation of isolated gastric fundus gland suspension
First, an isolated gastric fundic gland sample was prepared. […] Immediately thereafter, the stomach was removed and, after its pyloric and cardiac antrum were severed, incised along its greater curvature into two sheets. The gastric contents adhering to the mucosal surface was washed out with ice-cooled PBS (-) and then carefully washed therein. The gastric wall was spread on a cork board with its mucosal surface facing up and the feed and mucus thereon were completely removed with sterile gauze. The mucosa was separated therefrom by a spatula and then collected in ice-cooled PBS (-). After being washed twice with PBS (-), the mucosa was minced into 2-3 mm^3 pieces by scissors. These pieces were further washed twice with a nutrient solution. The nutrient solution comprises 132.4 mM of NaCl, 5.4 mM of KCl, 5 mM of Na2 HPO4.12H2 O, 1 mM of NaH2 PO4.2H2 O, 1.2 mM of MgSO4, 1 mM of CaCl2, 25 mM of HEPES, 2 mg/ml of glucose, and 1 mg/ml of BSA. Into 70 ml of the nutrient solution containing 1 mg/ml of collagenase, minced mucosal pieces were dispersed and intensely stirred in a conical flask with a stirrer at 37° C. for 40 to 60 minutes. During this period, 100% O2 was sprayed on the nutrient solution surface and the pH was appropriately measured such that it was immediately adjusted to pH 7.4, when the value was therebelow, with a base. The nutrient solution was added to the reaction solution so as to attain the total amount of about 200 ml. After being filtered through a mesh, the suspension was divisionally introduced into 50 ml centrifuge tubes and left for 15 minutes such that gastric fundic gland was deposited. The supernatant was repeatedly removed by an aspirator, dispersed in the nutrient solution, and then left such that the gastric fundic gland was washed three times. At this time, without using a pipette, the suspension was alternately introduced into two centrifuge tubes so as to effect dispersion. The number of cells was counted under microscope and adjusted to 1.6×10^6 cells/ml.
ii-b) [^14 C]-aminopyrine uptake test
Then, [^14 C]-aminopyrine uptake test was performed. After an Eppendorf tube was weighed, 10 μl (final concentration: 10^-5 M) of histamine dissolved in the above-mentioned nutrient solution, 10 μl (final concentration: 10^-5 M) of the test compound dissolved in DMSO, and 10 μl (final concentration: 0.05 μCi/ml) of [^14 C]-aminopyrine diluted with the nutrient solution were introduced therein and then 970 μl of the isolated gastric fundic gland suspension prepared above was added thereto. Subsequently, this mixture was shaken at 37° C. for 40 minutes at 125 cycles/minute. After being centrifuged for 30 minutes, 200 μl of its supernatant was collected into a mini-vial, while the rest was removed by an aspirator. The gland pellet was completely dried as the tube with its lid being opened was kept for one night in a drying oven at 80° C. and then the lid was closed and the weight was determined at room temperature. Then 100 μl of 1N KOH was added thereto and the tube with its lid being closed was treated at 60° C. for 1 to 2 hours so as to dissolve the pellet. Then, the contents thereof were transferred to a mini-vial. Into the mini-vial containing the supernatant or gland pellet, 4 ml of Atomlite™ was added and then the radioactivity was measured by a liquid scintillation counter. […]

Male Slc:ICR mice = tested on: Male Slc:ICR mice; set-up: species or system mouse (male Slc:ICR); conditions: mouse, in vivo
Description: AT: Single Dose Toxicity Pretest
Male Slc:ICR mice (5-week-old) were used. Each group has 3 to 5 mice and each mouse was fasted, but allowed free access to water, for 4 to 5 hours from 9 a.m. in the test day. Then, 2,000 mg/10 ml/kg of the sample compound dissolved or suspended in an aqueous solution of 0.5% sodium carboxymethyl cellulose was orally administered thereto. To a control, only the vehicle was administered. […] The body weight was measured before and after the fasting as well as at the same time everyday. The dead animals were immediately subjected to autopsy and their organs were observed microscopically. Also, the living animals were sacrificed with ether or carbon dioxide one week after the administration and then their organs were observed microscopically.
The toxicity at the single dose of 2,000 mg/kg of the sample compound was expressed as being classified into 5 levels.
5: Mortality rate is 0%; no toxicity is found at all both in behavior and organs.
4: Mortality rate is 0%; while no toxicity is found in organs, slight toxicity is observed in behavior and body weight increase.
3: While there is a dead animal (though not all the animals are dead), no toxicity is found in organs.
2: Regardless of whether there is a dead animal or not, toxicity is found in organs.
1: All the animals are dead.

in vitro = conditions: rabbit, gastric mucosal cells
gastric mucosa = experiment: PD: Gastric Mucosal Integrity Test (gastric mucosal potential difference); assay type: in vivo, rat (male Crj:SD); set-up: key: 5: Same as the control with no recognizable damage at all.; 4: Though a slight PD-decreasing tendency suggesting a slight possibility of mucosal damage is found, there is no problem.; 3: Though a weak decrease in PD and a possibility of a weak mucosal damage is recognized, there is no substantial problem.; 2: Medium degree of decrease in PD is found and a mucosal damage is recognized.; 1: Heavy degree of decrease in PD is found and a remarkable mucosal damage is recognized; conditions: 100 mg/kg into chamber, rats, 60 minutes
Description: PD: Gastric Mucosal Integrity Test
In this case, since the sample compound has a necrotizing effect, it is inappropriate as an anti-ulcer medicament.
Therefore, the gastric mucosal potential difference (PD), which reflects the integrity of the gastric mucosa, is measured so as to confirm that the sample compound has no damaging effect on gastric mucosa, which is toxicity at gastric mucosal level.
Male Crj:SD rats (7 to 8-week-old) were fasted overnight, but allowed free access to water, and then, under urethane anesthesia (1.25 g/kg, i.p.), fixed to a cork board on its back. The abdomen of each rat was incised, and a small incision was made in the forestomach. Then, the inside of the stomach was washed with physiological saline heated at 37° C. From the forestomach, along the greater curvature thereof, the stomach was incised without damaging blood vessels. After the height of the cork board was adjusted on a jack, the stomach was mounted on ex vivo chamber. The area of the gastric mucosa exposed to the inside of this chamber was 2.5 cm^2. The inside of the chamber was perfused with physiological saline warmed at 37° C. by micro tube pump. By using an agar bridge containing 3M KCl, the potential difference between the chamber and the abdominal cavity was measured by a PD meter. Here, the rectal temperature was measured to control the body temperature during the experiment. After the PD was sufficiently stabilized, the perfusate was stopped and then 100 mg/10 ml/kg of the sample compound dissolved or suspended in an aqueous solution of 0.5% sodium carboxymethyl cellulose or 0.05% Tween 80 was administered into the chamber, while PD was recorded for 60 minutes. To a control, the vehicle was administered.
The change in PD during 60 minutes after the administration of 100 mg/kg of the sample compound was collectively studied and, with reference to the positive control, classified into 5 levels as follows:
5: Same as the control with no recognizable damage at all.
3: Though a weak decrease in PD and a possibility of a weak mucosal damage is recognized, there is no substantial problem.
2: Medium degree of decrease in PD is found and a mucosal damage is recognized.
1: Heavy degree of decrease in PD is found and a remarkable mucosal damage is recognized.

acid secretion in vivo = experiment: VOL, TAO: Acid Secretion Inhibition Test In Vivo; set-up: species or system rat (male Crj:Donryu); conditions: 100 mg/kg oral, pylorus-ligated rats, histamine 30 mg/kg s.c.
Description: as §1
Inhibitory effect on acid secretion in vivo is confirmed.
Male Crj:Donryu rats (7-week-old) were fasted overnight but allowed free access to water. In each group, 8 to 10 of these rats were used under urethane anesthesia (1.25 g/kg). The sample compound dissolved or suspended in an aqueous solution of 0.5% sodium carboxymethylcellulose or 0.05% Tween 80 was orally administered (100 mg/10 ml/kg). 30 minutes later, the abdomen of each was incised and the pylorus was ligated. 30 minutes after the ligation, 30 mg/kg of histamine dissolved in physiological saline was subcutaneously administered and, 3 hours thereafter, the rat was sacrificed with carbon dioxide. Immediately thereafter, each stomach was removed and the gastric contents were collected and each volume was determined. The total acid output was determined by titration of the gastric juice with 0.1N NaOH.
as §2

## CC(C)=CCC/C(C)=C/COc1ccc(OC/C=C(\C)CCC=C(C)C)c(C(=O)NCCN2CCCCC2)c1 [Example 13]
Stress ulcer
  WIS: ulcer formation inhibitory rate: 67%
[1]
  inhibition at 10 µM: 100%
Male Slc:ICR mice
  AT: toxicity at single dose, 5 levels: 5
In vitro
  cytotoxicity at 4 h, 100 µM: -5%

## COc1cc(C(=O)NCCN2CCOCC2)cc(OC)c1OC/C=C(/C)CCC=C(C)C [Example 43]
Stress ulcer
  WIS: ulcer formation inhibitory rate: 41%
Gastric mucosa
  PD: change in gastric mucosal potential difference, 5 levels: 5
Male Slc:ICR mice
  AT: toxicity at single dose, 5 levels: 4
In vitro
  cytotoxicity at 4 h, 100 µM: 10%

## COc1cc(C(=O)NCCN2CCCCC2)cc(OC)c1OCC=C(C)C [Example 27]
Stress ulcer
  WIS: ulcer formation inhibitory rate: 82%
Gastric mucosa
  PD: change in gastric mucosal potential difference, 5 levels: 5
In vitro
  cytotoxicity at 4 h, 100 µM: -11%

## CC(C)=CCC/C(C)=C/CC/C(C)=C/COc1ccc(C(=O)NCCN2CCCCC2)cc1 [Example 10]
Stress ulcer
  WIS: ulcer formation inhibitory rate: 47%
[1]
  inhibition at 10 µM: 98%
Gastric mucosa
  PD: change in gastric mucosal potential difference, 5 levels: 5
Male Slc:ICR mice
  AT: toxicity at single dose, 5 levels: 4

## COc1cc(C(=O)NCCN2CCOCC2)cc(OC)c1OC/C=C(\C)CCC=C(C)C [Example 42]
Stress ulcer
  WIS: ulcer formation inhibitory rate: 69%
[1]
  inhibition at 10 µM: 102%
Male Slc:ICR mice
  AT: toxicity at single dose, 5 levels: 4
In vitro
  cytotoxicity at 4 h, 100 µM: 0%

## CC(C)=CCC/C(C)=C/CC/C(C)=C/COc1ccc(C(=O)NCCN2CCOCC2)cc1 [Example 32]
Stress ulcer
  WIS: ulcer formation inhibitory rate: 55%
[1]
  inhibition at 10 µM: 99%
Male Slc:ICR mice
  AT: toxicity at single dose, 5 levels: 5
In vitro
  cytotoxicity at 4 h, 100 µM: 58%

## CC(C)=CCC/C(C)=C/COc1ccc(C(=O)NCCN2CCCCC2)cc1OC/C=C(\C)CCC=C(C)C [Example 11]
Stress ulcer
  WIS: ulcer formation inhibitory rate: 91%
Gastric mucosa
  PD: change in gastric mucosal potential difference, 5 levels: 5
Male Slc:ICR mice
  AT: toxicity at single dose, 5 levels: 4
In vitro
  cytotoxicity at 4 h, 100 µM: 23%

## COc1cc(C(=O)NCCN2CCOCC2)cc(OC/C=C(\C)CCC=C(C)C)c1OC [Example 44]
Stress ulcer
  WIS: ulcer formation inhibitory rate: 61%
[1]
  inhibition at 10 µM: 100%
Male Slc:ICR mice
  AT: toxicity at single dose, 5 levels: 4
In vitro
  cytotoxicity at 4 h, 100 µM: 22%

## CC(C)=CCC/C(C)=C/COc1ccc(C(=O)NCCN2CCN(CC(C)C)CC2)cc1 [Example 46]
Stress ulcer
  WIS: ulcer formation inhibitory rate: 78%
Acid secretion in vivo
  TAO: total acid output inhibitory rate: 34%
  VOL: gastric juice volume inhibitory rate: 33%
[1]
  inhibition at 10 µM: 100%
In vitro
  cytotoxicity at 4 h, 100 µM: 68%

## CC(C)=CCC/C(C)=C/COc1ccc(C(=O)NCCN2CCCCC2)cc1 [Example 3]
Stress ulcer
  WIS: ulcer formation inhibitory rate: 79%
Acid secretion in vivo
  TAO: total acid output inhibitory rate: 85%
  VOL: gastric juice volume inhibitory rate: 68%
[1]
  inhibition at 10 µM: 100%
Male Slc:ICR mice
  AT: toxicity at single dose, 5 levels: 4

## CC(C)=CCC/C(C)=C/COc1cccc(C(=O)NCCN2CCOCC2)c1 [Example 29]
Stress ulcer
  WIS: ulcer formation inhibitory rate: 63%
[1]
  inhibition at 10 µM: 99%
Male Slc:ICR mice
  AT: toxicity at single dose, 5 levels: 5
In vitro
  cytotoxicity at 4 h, 100 µM: 16%
